Reference: PMC3545969, “Mutagenicity and antimutagenicity of (−)-hinokinin a trypanosomicidal compound measured by Salmonella microsome and comet assays” (BMC Complementary and Alternative Medicine, 2012)
Read-outs that look alike come from different tables or passages of the source. Marks after values point to notes of the source that are not given here.

Columns and labels:
[1] = test system: V79 cells; experiment: Comet assay, genotoxicity in V79 cells; format: cell-based, Chinese hamster; set-up: Class 0 / Class 1 / Class 2 / Class 3: unit not given here; settings: for Class 0 / Class 1 / Class 2 / Class 3 / Score: 3 h
Protocol: Chinese hamster lung fibroblasts (V79) were kindly supplied by Professor Cólus (Universidade Estadual de Londrina (UEL), Paraná, Brazil). Cells were maintained as monolayers in plastic culture flasks (25 cm^2) in HAM-F10 (Sigma-Aldrich) plus DMEM (Sigma-Aldrich, 1:1) culture medium supplemented with 10%; fetal bovine serum (Nutricell), antibiotics (0.01 mg mL^−1 streptomycin and 0.005 mg mL^−1 penicillin; Sigma-Aldrich) and 2.38 mg mL^−1 Hepes (Sigma-Aldrich), at 37°C in a BOD-type chamber. Under these conditions, the average cell cycle time was 12 h.
HK was first dissolved in a mixture of methanol (100 μL) and distilled water (900 μL). The final concentration of methanol in the culture was 0.1%;. The choice of concentrations was based on the results of previous experiments with HK [12]. In the experiments, 3 × 10^5 cells (V79) were seeded into tissue-culture flasks, incubated for two cycles (24 h) in complete HAM-F10/DMEM medium, washed with phosphate buffer saline (PBS), and then subjected to one of the following treatments, in serum-free medium, for 3 h. To assess genotoxicity, the cells were treated with each concentration of HK alone, while for antigenotoxicity, they were treated with the mutagen DXR (0.3 μM) in combination with each HK concentration. Positive (DXR) and negative controls were also included in the test. At the end of the treatment, the cells were washed with ice-cold PBS and trypsinized with 200 μL trypsin. After 3 min, the cells were gently resuspended in complete medium and 20 μL of the cell suspension was immediately used for the test.
The procedures described by Singh et al. were adopted, with minor modifications, as described in detail by Speit and Hartmann and reviewed by Burlinson et al.. Briefly, a microscope slide was covered with a base layer of 1.5%; normal-melting agarose (Invitrogen) and 20 μL of the test cells suspended in 120 μL 0.5%; low-melting agarose (Invitrogen) at 37°C was then spread over the base layer. A coverslip was added and the agarose allowed to solidify at 4°C for 15 min. Next, the coverslip was gently removed and the slides were immersed in freshly prepared lysing solution consisting of 89 mL stock solution (2.5 M NaCl, 100 mM EDTA, 10 mM Tris, pH 10.0, and 1%; sodium lauryl sarcosine), 10 mL DMSO and 1 mL Triton X-100, pH 10.0, at 4°C, for at least 20 h, protected from light. At the end of this period, the slides were transferred to an electrophoresis chamber containing a high pH (>13.0) buffer (300 mM NaOH, 1 mM EDTA) and incubated at 4°C for 20 min to allow the DNA to unwind. A current of 25 V (1.0 V cm^−1, 300 mA) was applied for 20 min. The slides were then submerged in a neutralization buffer (0.4 M Tris - HCl, pH 7.5) for 15 min, dried at room temperature and fixed in 100%; ethanol for 10 min.
The slides were stained with 100 μL ethidium bromide (20 μg ml^−1) and covered with a coverslip. All the slides in the experiment were coded before analysis. The stained nucleoids were immediately evaluated at 1000x magnification under a Nikon fluorescence microscope fitted with a 515–560 nm excitation filter and a 590 nm barrier filter.
For each treatment, the extent and distribution of DNA damage indicated by the comet assay were evaluated by examining 100 randomly selected and non-overlapping cells on the slides (i.e. 300 nucleoids per treatment). For each slide, the cells were visually scored and allocated to one of four classes (0, 1, 2 and 3), according to tail size, as follows: class 0, undamaged, no tail; class 1, a short tail whose length was smaller than the diameter of the comet head (nucleus); class 2, tail length between 1 and 2 times the diameter of the head; and class 3, maximally damaged: a long tail measuring more than twice the diameter of the head. The few comets containing no head and those with almost all DNA in the tail, or with a very wide tail, were excluded from the analysis since they may arise from dead cells. […]

[2] = test system: Salmonella typhimurium TA100
[3] = test system: Salmonella typhimurium TA98; settings: TA 98, + S9, positive control 2-anthramine 1.25 μg/plate
[4] = test system: Salmonella typhimurium TA100; remark: listed apart in the source
[5] = test system: Salmonella typhimurium TA97a; settings: TA 97a, + S9, positive control 2-anthramine 1.25 μg/plate
[6] = test system: Salmonella typhimurium TA97a; settings: TA 97a, + S9, mutagen alone (Ctrol +), 2-AA 1.25 μg/plate
[7] = DXR 0.3 μM alone (positive control)

COc1cccc2c1C(=O)c1c(O)c3c(c(O)c1C2=O)C[C@@](O)(C(=O)CO)C[C@@H]3O[C@H]1C[C@H](N)[C@H](O)[C@H](C)O1 [DXR, doxorubicin, reference compound]
Class 0 ([1]; DXR 0.3 μM + MeOH 0.1%): 46.3 ± 6.8 | Class 1 ([1]; DXR 0.3 μM + MeOH 0.1%): 30.0 ± 6.0 | Class 2 ([1]; DXR 0.3 μM + MeOH 0.1%): 16.3 ± 5.6 | Class 3 ([1]; DXR 0.3 μM + MeOH 0.1%): 6.6 ± 3.0 | Score ([1]; DXR 0.3 μM + MeOH 0.1%): 83.3 ± 14.5^a | Class 0 [1, 7]: 41.0 ± 12.0 | Class 1 [1, 7]: 36.0 ± 12.7 | Class 2 [1, 7]: 18.0 ± 2.0 | Class 3 [1, 7]: 4.0 ± 2.5 | Score [1, 7]: 86.0 ± 11.5^a | rate of DNA damage relative to the negative control ([1]; DXR 0.3 μM, V79 cells): significant increase in the rate of DNA damage

aflatoxin B1 [AFB1, reference compound]
Number of revertants(M ± SD)/ plate [2]: 1607 + 79 revertants/plate

Nc1ccc2cc3ccccc3cc2c1 [2-AA, 2-aminoanthracene, reference compound]
Number of revertants(M ± SD)/ plate [3]: 1567 ± 115^e revertants/plate | Number of revertants(M ± SD)/ plate ([4]; TA 100, + S9, positive control 2-anthramine 1.25 μg/plate): 1456 ± 78^e revertants/plate | Number of revertants(M ± SD)/ plate [5]: 1789 ± 89^e revertants/plate | Number of revertants(M ± SD)/ plate [6]: 1083 + 67 revertants/plate

[N-]=[N+]=[N-].[Na+] [SA, sodium azide, reference compound]
Number of revertants(M ± SD)/ plate [4]: 1582 ± 98^c revertants/plate | Number of revertants(M ± SD)/ plate [2]: 1219 + 46 revertants/plate
